Results taken from patent US12642865B2, “Toroidal mixed nanoparticle, method for preparing the same, and method for multifunctional delivery using the same” (China Medical University, priority 2022, dated 2026).

Key:
[1] = Hepatic and renal functional evaluation (serum); format: in vivo, mice; conditions: after 16 d
Text: To investigate the efficacy of tumor inhibition, HCT116-cell-bearing 4-week-old female Balb-c/nude mice whose tumor sizes were up to 500 mm^3 were separated into 3 groups and each group contained 5 mice. […] The tumor size and weight were monitored every 2 to 3 days for 16-days post-injection. At day 16 post-injection, the mice were all euthanized, and their blood was collected. Meanwhile, the tumor and liver of mice were collected. The tumors were photographed after excluding the extreme ones. The blood samples were centrifugated under 3000 RPM for 10 min to obtain the serum samples for hepatic and renal functional evaluations. The hepatic function was assessed by the aspartate aminotransferase (AST) and alanine aminotransferase (ALT) values; the function of the kidneys was evaluated with the index of blood urea nitrogen (BUN) and creatinine.

[2] = tested on: HCT116-cell-bearing Balb-c/nude mice; assay: Histopathological analysis (H&E) of tumors and organs; format: in vivo; conditions: Day 16; control: livers, lungs, and spleens
Procedure: The tumors and livers harvested from mice were preserved in 4% formalin overnight and the tumor and livers were embedded in paraffin to form paraffin tissue blocks. Afterwards, the tissues were sliced into 5-μm thick sections using a microtome (Leica RM 2145, Leica, Wetzlar, Germany). These sections were stained with H & E. The histopathological analysis was performed using an optical microscope (Optiphot-2, Nikon, Tokyo, Japan).

renal functional index BUN [1]: 32.9 ± 9.3 mg/dL
renal functional index Creatinine [1]: 0.44 ± 0.05 mg/dL
Compound: NC1CCCCC1N.[Cl][Pt][Cl] (centres unmarked) [DACHPt, dichloro(1,2-diaminocyclohexane)platinum(II)]
hepatic functional index ALT [1]: 40 ± 3 U/L
hepatic functional index AST [1]: 134 ± 29 U/L
tumor metastasis in organs (H&E sections) [2]: only observed in lungs
